# Reference: patent publication US11400056B2, “Pharmaceutical composition comprising gallstone solubilizer for treatment of gallbladder disease” (SurgiNex Co., Ltd., priority 2016, dated 2022)
# Columns and labels:
# [1] = Evaluation of gallstone dissolution, cholesterol stone; set-up: species or system human; conditions: 37° C., 4 hours; for Dissolution ability (%) Cholesterol stone: 0.5 g gallstone + 0.5 ml agent (1 g compound in 1 ml DMSO), (weight after dissolution)/(weight before dissolution)×100
# Procedure: (§1) In order to evaluate the cholesterol stone and pigmented stone dissolution abilities of each of Examples 1 to 3 and Comparative Examples 1 and 2 prepared according to the Preparation Example above, cholesterol stones and pigmented stones removed during surgery of gallstone patients were obtained, thereby preparing gallstones. 0.5 g of each of the prepared gallstones was placed in an Eppendorf tube, and then 0.5 ml of each of the gallstone-dissolving agents of Examples 1 to 3 and Comparative Examples 1 and 2 was added to the Eppendorf tube containing the gallstone. Each tube was left to stand at 37° C. for 4 hours. Thereafter, the gallstone dissolution ability of each compound was evaluated by measuring the mass of the gallstones before and after dissolving the gallstone by treatment with each compound. The results of evaluating the abilities to dissolve cholesterol stones and pigmented stones are shown in Tables 2 and 3 below, respectively, and photographs before and after dissolving the gallstones are comparatively shown in FIGS. 1 and 2, respectively.
# (§2) The gallstone dissolution ability was calculated using the following equation: Gallstone dissolution ability (%)=(weight of gallstone after dissolution)/(weight of gallstone before dissolution)×100
# [2] = Evaluation of gallstone dissolution, pigmented stone; set-up: species or system human; conditions: 0.5 g gallstone + 0.5 ml agent (1 g compound in 1 ml DMSO), 37° C., 4 hours; (weight after dissolution)/(weight before dissolution)×100
# Procedure: as §1, §2
SMILES,Dissolution ability (%) Cholesterol stone [1],Dissolution ability (%) Pigmented stone [2],ability to dissolve the cholesterol stone (in words) ([1]; Table 2 and FIG. 1)
"COC(C)(C)C [Comparative Example 1, Methyl tert-butyl ether, reference compound]",24.07%,,
"CCOC(=O)CC [Comparative Example 2, ethyl propionate, reference compound]",48.66%,,
"COc1cccc(C)n1 [Example 1, 2-methoxy-6-methylpyridine]",14.16%,52.92%,
"COC(=O)c1cccc(C)c1 [Example 2, methyl 3-methylbenzoate]",10.00%,58.33%,excellent ability to dissolve the cholesterol stone
"CC(=O)C1CC1 [Example 3, 1-cyclopropylethanone]",28.57%,60.00%,
